{"source": "patent US9594084B2", "about": "“Phosphorylation of histones and uses thereof” (H. LEE MOFFITT CANCER CENTER AND RESEARCH INSTITUTE, priority 2012, dated 2017)", "target": "WEE1 (Homo sapiens, UniProt P30291)", "sequence (P30291 whole entry)": "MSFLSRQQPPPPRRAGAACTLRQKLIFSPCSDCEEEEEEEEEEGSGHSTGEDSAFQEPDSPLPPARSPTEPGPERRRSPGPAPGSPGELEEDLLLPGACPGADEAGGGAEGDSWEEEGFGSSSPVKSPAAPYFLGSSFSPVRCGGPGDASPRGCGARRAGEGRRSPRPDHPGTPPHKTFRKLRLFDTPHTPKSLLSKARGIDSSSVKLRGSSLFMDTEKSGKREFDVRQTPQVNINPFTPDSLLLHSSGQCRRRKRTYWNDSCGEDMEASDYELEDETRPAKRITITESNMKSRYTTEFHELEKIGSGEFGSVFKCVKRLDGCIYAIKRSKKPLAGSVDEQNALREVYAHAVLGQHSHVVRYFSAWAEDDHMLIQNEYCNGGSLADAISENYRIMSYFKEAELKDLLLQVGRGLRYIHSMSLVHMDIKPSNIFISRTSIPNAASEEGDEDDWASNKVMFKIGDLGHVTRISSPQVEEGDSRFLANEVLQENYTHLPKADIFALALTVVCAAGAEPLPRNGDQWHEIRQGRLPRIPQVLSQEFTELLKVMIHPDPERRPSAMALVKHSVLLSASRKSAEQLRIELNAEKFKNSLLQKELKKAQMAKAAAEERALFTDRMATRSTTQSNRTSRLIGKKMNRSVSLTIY", "assay": "pTyr37-H2B immunoprecipitation/immunoblot in synchronized H1975 cells", "type": "cell-based", "parameters": "endogenous in cells; host or cells: H1975", "conditions": "6.30 hours post-release, 0.3 μM", "description": "FIG. 13A is an immunoblot showing lysates from synchronized MEFs immunoprecipitated with pTyr37-H2B antibodies followed by immunoblotting with pTyr37-H2B antibody (top panel) or H2B antibody (bottom panel). FIG. 13B is an immunoblot showing cell lysates 6.30 hours post-release from H1975 cells synchronized by double thymidine alone (first column) or with 0.31 μM (second column), 0.62 μM (third column) and 1.25 μM (fourth column) MK1775 WEE1 inhibitor that were immunoprecipitated with pTyr37-H2B antibodies followed by immunoblotting with pTyr37-H2B, H2B, pTyr15-Cdc2, or Cdc2 antibodies. FIG. 13C is an immunoblot showing lysates collected at 0 and 6.30 hours post-release from synchronized MEFs transfected with control (first two columns) or WEE1 (last two columns) siRNAs that were immunoprecipitated with pTyr37-H2B antibodies followed by immunoblotting with pTyr37-H2B (top panel), H2B (second panel), WEE1 (third panel), or PTyr15-Cdc2 (bottom panel) antibodies. FIG. 13D is an immunoblot showing equimolar amounts of purified WEE1 (last three columns) and H2B (first three columns) proteins incubated in the presence (third column) or absence of WEE1 inhibitor (MK1775, 0.625 μM) for 1 hour at 30° C. and immunoblotted with pTyr37-H2B (top panel), H2B (middle panel), and WEE1 (bottom panel) antibodies. […]", "data": [{"smiles": "C=CCn1c(=O)c2cnc(Nc3ccc(N4CCN(C)CC4)cc3)nc2n1-c1cccc(C(C)(C)O)n1", "note": "[MK-1775]", "values": [{"measurement": "pTyr37-phosphorylation of H2B", "value": "complete loss"}]}]}
